Drawing on patent US8790934B2, “Nanoparticles” (Consejo Superior de Investigaciones Cientificas, priority 2000, dated 2014), this text covers solubility in methanol and solubility in water for 2 compounds.

The nature of this data set: solubility in methanol and water. It is filed as physicochemical. The following applies: for solubility in methanol: methanol (MeOH). How it is done:
Synthesis of glyconanoparticles: A solution of disulphide 1,2, or 3 (0.012M, 5.5 eq) in MeOH was added to a solution of tetrachloroauric acid (0.025M, 1 eq) in water. NaBH4 (1M, 22 eq) in water was added in small portions with rapid stirring. The black suspension that was formed was stirred for additional 2 hours and the solvent was then removed under vacuum. The crude of the reaction was washed with MeOH and was centrifuged for 10 minutes. The methanol was removed and the process was repeated several times until the starting material was not detected by TLC. The glyco-nanoparticles are completely insoluble in MeOH but quite soluble in water. • They were purified by dialysis: 50 mg of crude product was dissolved in 10 mL of water (NANOpure). This solution was loaded into 10 cm segments of cellulose ester dialysis membrane (SIGMA, MWCO=12400) and placed in 4 L of water (NANOpure). The dark glyconanoparticles solution was collected from the dialysis segments and lyophilized. The products obtained were free of salts and starting material (absence of signals due to disulphide and Na^+ in NMR).
The presentation of the carbohydrate molecules at the nanoparticles surface was then investigated. The molecular properties of the neoglycoconjugates 1, 2 and 3 suffer a differential change after attaching them to the gold surface. […] The Le^x derivative 3 is soluble in methanol and water, its nanoparticle 3-Au, however, is insoluble in methanol and very soluble in water. These differences in solubility can be used to purify the glyconanoparticles from the non-reacted disulfides by washing them with methanol. However, the most significant fact in these changes is that they reveal the influence of clustering at the surface on the carbohydrate presentation to the surrounding.

As to `OCC1OC(OC2C(CO)OC(OCCCCCCCCCCCSSCCCCCCCCCCCOC3OC(CO)C(OC4OC(CO)C(O)C(O)C4O)C(O)C3O)C(O)C2O)C(O)C(O)C1O` (stereo not shown) [Compound 2], the solubility in methanol result was “soluble” and the solubility in water result is given as “insoluble”.

On to `CC(=O)N[C@H]1[C@H](OCCCCCCCCCCCSSCCCCCCCCCCCO[C@@H]2O[C@H](CO)[C@@H](O[C@@H]3O[C@H](CO)[C@H](O)[C@H](O)[C@H]3O)[C@H](O[C@@H]3O[C@@H](C)[C@@H](O)[C@@H](O)[C@@H]3O)[C@H]2NC(C)=O)O[C@H](CO)[C@@H](O[C@@H]2O[C@H](CO)[C@H](O)[C@H](O)[C@H]2O)[C@@H]1O[C@@H]1O[C@@H](C)[C@@H](O)[C@@H](O)[C@@H]1O` [Compound 3], for which the solubility in methanol result is given as “soluble” and the solubility in water result is “soluble”.
